In ChEMBL document CHEMBL2406999, “Vialinin A is a ubiquitin-specific peptidase inhibitor” (Bioorg Med Chem Lett, 2013) one finds inhibition, Activity and IC50 data, which are given here for seven compounds.

For experiment [1], the target named is T1, Ubiquitin carboxyl-terminal hydrolase 5 (Homo sapiens) (UniProt P45974).
T1 sequence (whole entry): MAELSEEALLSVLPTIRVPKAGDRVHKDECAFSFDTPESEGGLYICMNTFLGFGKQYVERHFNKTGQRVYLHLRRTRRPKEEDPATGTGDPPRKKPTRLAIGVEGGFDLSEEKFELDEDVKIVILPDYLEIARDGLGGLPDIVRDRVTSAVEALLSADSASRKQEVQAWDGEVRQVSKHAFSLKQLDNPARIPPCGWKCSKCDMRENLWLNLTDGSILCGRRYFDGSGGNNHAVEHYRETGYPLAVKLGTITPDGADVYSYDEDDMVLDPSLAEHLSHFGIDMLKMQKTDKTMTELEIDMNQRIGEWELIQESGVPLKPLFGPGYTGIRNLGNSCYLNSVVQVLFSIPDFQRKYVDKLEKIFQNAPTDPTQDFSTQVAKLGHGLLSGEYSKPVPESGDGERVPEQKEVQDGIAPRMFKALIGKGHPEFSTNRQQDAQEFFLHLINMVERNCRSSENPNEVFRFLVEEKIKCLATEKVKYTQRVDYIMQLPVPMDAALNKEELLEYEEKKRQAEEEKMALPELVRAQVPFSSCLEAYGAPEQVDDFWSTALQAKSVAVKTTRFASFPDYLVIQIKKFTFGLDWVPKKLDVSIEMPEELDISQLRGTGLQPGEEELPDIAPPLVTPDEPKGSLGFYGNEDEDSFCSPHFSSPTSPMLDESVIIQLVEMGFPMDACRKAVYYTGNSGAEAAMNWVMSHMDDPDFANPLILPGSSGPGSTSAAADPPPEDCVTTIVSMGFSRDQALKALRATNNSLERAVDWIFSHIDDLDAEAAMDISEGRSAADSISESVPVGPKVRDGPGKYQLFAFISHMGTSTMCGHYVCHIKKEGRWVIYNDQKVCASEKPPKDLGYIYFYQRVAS
Put plainly: Inhibition of human USP5 using Ub4 as substrate at 50 uM after 10 mins by SDS-PAGE analysis.

In experiment [2] the target is T1, Ubiquitin carboxyl-terminal hydrolase 5 (Homo sapiens). Description: Competitive binding affinity to human recombinant USP5 after 1 hr by SDS-PAGE analysis in presence of biotin-DMT.
The target in experiment [3] is Ubiquitin carboxyl-terminal hydrolase isozyme L1 (Homo sapiens) (UniProt P09936). Description: Inhibition of human UCH-L1 using Ub-AMC as substrate at 1 to 20 uM after 10 mins by fluorometric analysis.
Experiment [4] concerns the target T1, Ubiquitin carboxyl-terminal hydrolase 5 (Homo sapiens). Description: Inhibition of wild type human USP5 expressed in Escherichia coli BL21(DE3) using K48-linked tetraubiquitin as substrate assessed as substrate hydrolysis at 20 uM after 15 mins by SDS-PAGE analysis.
Experiment [5] shares this target. Put plainly: Inhibition of human USP5 using Ub-AMC as substrate at 1 to 20 uM after 10 mins by fluorometric analysis.
Experiment [6] has as its target T2, Ubiquitin carboxyl-terminal hydrolase 4 (Homo sapiens) (UniProt Q13107).
T2 sequence (whole entry): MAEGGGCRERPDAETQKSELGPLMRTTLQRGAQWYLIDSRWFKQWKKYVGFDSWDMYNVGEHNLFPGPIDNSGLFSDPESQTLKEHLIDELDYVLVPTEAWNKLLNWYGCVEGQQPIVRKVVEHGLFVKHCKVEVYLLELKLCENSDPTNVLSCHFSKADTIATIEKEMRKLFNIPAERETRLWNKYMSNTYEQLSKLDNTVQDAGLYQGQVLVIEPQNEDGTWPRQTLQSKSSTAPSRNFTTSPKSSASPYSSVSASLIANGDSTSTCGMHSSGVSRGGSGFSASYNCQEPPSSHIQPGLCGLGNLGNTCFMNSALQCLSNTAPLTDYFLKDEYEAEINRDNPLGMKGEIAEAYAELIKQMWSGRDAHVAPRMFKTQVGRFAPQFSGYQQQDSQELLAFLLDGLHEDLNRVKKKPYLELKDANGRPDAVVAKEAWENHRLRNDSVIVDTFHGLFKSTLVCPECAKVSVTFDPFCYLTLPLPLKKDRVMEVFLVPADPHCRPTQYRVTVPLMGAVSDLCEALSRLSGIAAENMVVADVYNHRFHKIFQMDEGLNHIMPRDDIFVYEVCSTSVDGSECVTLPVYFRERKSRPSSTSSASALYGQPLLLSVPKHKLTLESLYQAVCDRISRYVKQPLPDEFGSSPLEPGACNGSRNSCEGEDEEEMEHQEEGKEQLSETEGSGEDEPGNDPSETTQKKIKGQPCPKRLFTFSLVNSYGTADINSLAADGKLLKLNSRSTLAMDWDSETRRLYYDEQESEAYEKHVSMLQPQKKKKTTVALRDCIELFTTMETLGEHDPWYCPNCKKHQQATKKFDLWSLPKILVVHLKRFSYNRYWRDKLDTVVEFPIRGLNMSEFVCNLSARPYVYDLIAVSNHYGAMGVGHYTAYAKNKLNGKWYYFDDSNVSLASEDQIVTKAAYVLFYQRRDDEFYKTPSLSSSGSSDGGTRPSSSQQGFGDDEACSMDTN
Description: Inhibition of human USP4 using Ub-AMC as substrate at 1 to 20 uM after 10 mins by fluorometric analysis.

For experiment [7], the target named is Ubiquitin carboxyl-terminal hydrolase 9X (Homo sapiens, UniProt Q93008). Description: Inhibition of USP9x in human Z138 cells after 1 hr by immunoblotting analysis. The class given is cell-based. (In general: In western blotting, separated proteins are transferred to a membrane and probed.)
Chain of Ubiquitin carboxyl-terminal hydrolase 9X (Q93008 whole entry): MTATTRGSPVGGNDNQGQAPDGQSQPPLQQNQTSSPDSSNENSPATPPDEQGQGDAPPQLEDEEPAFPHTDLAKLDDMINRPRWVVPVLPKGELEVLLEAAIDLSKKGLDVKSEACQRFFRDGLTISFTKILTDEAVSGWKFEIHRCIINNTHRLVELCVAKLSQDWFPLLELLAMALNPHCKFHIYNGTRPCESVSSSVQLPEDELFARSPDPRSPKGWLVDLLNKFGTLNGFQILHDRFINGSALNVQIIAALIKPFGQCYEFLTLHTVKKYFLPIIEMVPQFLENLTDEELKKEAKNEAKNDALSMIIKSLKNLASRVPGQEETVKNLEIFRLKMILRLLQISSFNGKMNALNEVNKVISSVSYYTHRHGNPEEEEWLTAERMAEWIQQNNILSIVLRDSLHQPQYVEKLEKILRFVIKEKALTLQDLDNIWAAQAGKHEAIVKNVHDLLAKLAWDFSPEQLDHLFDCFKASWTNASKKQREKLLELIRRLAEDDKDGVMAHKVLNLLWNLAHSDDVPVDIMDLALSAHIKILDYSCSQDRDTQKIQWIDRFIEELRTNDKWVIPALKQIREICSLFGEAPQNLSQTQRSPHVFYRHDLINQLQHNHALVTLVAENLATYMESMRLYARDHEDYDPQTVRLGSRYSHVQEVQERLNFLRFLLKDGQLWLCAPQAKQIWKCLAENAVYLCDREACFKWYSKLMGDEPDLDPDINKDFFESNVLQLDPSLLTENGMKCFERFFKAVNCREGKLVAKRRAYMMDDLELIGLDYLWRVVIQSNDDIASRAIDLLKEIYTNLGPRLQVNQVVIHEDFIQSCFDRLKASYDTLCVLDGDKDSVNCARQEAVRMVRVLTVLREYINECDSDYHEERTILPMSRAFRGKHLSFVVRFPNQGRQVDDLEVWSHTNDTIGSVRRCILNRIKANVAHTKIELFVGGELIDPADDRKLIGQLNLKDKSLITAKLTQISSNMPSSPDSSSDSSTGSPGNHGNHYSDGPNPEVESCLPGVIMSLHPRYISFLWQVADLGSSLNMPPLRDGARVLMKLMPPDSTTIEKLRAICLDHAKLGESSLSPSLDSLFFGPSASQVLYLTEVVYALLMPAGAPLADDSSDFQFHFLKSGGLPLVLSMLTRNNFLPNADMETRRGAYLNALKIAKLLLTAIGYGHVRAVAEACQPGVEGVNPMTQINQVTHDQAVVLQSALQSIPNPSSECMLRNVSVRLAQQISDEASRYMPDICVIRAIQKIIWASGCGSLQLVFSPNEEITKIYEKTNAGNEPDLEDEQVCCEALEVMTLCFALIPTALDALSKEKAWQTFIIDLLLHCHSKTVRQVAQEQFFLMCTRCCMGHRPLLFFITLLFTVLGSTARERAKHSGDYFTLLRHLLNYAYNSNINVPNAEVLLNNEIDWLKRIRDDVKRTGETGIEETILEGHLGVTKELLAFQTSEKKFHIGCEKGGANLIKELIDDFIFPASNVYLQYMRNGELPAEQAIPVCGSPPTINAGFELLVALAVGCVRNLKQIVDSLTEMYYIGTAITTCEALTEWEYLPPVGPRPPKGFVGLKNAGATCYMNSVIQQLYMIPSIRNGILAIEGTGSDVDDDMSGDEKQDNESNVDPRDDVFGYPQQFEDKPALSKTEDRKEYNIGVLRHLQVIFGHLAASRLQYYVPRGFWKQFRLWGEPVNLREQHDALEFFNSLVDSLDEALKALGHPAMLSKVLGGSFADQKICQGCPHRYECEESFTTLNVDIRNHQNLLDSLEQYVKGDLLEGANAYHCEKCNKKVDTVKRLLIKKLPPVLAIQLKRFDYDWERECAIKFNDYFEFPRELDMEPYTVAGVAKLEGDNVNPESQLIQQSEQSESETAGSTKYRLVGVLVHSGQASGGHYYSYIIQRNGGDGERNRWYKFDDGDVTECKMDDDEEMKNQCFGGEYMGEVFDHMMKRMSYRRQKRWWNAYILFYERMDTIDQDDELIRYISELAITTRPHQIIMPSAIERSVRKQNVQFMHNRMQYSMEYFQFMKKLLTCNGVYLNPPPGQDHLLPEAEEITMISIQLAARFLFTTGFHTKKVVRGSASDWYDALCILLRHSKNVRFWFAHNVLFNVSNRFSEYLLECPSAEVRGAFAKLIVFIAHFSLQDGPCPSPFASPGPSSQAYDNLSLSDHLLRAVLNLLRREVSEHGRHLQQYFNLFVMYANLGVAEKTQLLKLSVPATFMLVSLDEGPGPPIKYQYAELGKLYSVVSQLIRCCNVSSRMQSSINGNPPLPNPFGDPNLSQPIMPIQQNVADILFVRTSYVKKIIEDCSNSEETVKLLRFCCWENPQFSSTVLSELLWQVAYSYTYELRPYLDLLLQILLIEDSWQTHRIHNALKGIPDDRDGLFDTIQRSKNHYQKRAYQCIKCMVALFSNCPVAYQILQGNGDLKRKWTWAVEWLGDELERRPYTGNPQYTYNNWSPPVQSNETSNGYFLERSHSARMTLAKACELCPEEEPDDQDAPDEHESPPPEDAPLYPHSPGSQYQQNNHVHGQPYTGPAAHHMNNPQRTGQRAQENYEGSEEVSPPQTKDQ
In experiment [8] the target is T3, Ubiquitin carboxyl-terminal hydrolase 5 (Homo sapiens, UniProt P45974).
T3 sequence (P45974 whole entry): T1 sequence (whole entry)
Description: Inhibition of USP5 in human Z138 cells after 1 hr by immunoblotting analysis. The class given is cell-based.

The target of experiment [9] is T4, Ubiquitin carboxyl-terminal hydrolase isozyme L1 (Homo sapiens, UniProt P09936).
T4 sequence (P09936 whole entry): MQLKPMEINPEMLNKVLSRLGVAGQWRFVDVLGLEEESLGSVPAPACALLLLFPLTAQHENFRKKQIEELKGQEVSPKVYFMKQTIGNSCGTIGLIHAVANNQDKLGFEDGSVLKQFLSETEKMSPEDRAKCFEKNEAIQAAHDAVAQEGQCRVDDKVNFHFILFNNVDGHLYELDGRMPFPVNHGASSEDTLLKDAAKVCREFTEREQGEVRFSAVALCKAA
Description: Inhibition of UCH-L1 in human Z138 cells after 1 hr by immunoblotting analysis. The class given is cell-based.

In experiment [10] the test system is RBL-2H3. Description: Binding affinity to USP5 in rat RBL2H3 cell extracts at 1 to 100 uM by SDS-PAGE analysis. In kind it is cell-free.
The target of experiment [11] is T1, Ubiquitin carboxyl-terminal hydrolase 5 (Homo sapiens). Put plainly: Inhibition of wild type human USP5 expressed in Escherichia coli BL21(DE3) using K48-linked tetraubiquitin as substrate assessed as substrate hydrolysis at 5 to 50 uM after 15 mins by SDS-PAGE analysis.
The target is the same in experiment [12]. Put plainly: Binding affinity to human recombinant USP5 by SDS-PAGE analysis.
Experiment [13] addresses T2, Ubiquitin carboxyl-terminal hydrolase 4 (Homo sapiens). Put plainly: Binding affinity to human USP4 after 1 hr by SDS-PAGE analysis.
The target of experiment [14] is Ubiquitin carboxyl-terminal hydrolase isozyme L1 (Homo sapiens) (UniProt P09936). Description: Binding affinity to human UCH-L1 after 1 hr by SDS-PAGE analysis.

Active and inactive are the calls of the source. The calls are words filed in the database; no cut-off is given here. Square brackets hold non-standard residues; d marks the D form. Peptide text beside a SMILES is read from it. * marks the point of attachment. Nle = CCCC[C@H](N)C(=O)O; Cbz = O=C(OCc1ccccc1)*

Turning to `CC(C)C[C@H](NC(=O)OCc1ccccc1)C(=O)N[C@H](C=O)Cc1ccccc1` (Cbz-Leu-Phe-aldehyde), the inhibition result in experiment [1] was “inactive”.

As for `Cc1c(C)c(-c2ccc(O)cc2)c(O)c(O)c1-c1ccc(O)cc1`, in [2], the result was Active. Moreover, the inhibition result in [3], in [4], in experiment [5] and in experiment [6] was “Active” throughout.

Regarding `CCCC[C@@H](C=O)NC(=O)[C@H](CC(C)C)NC(=O)[C@H](CC(C)C)NC(C)=O` (Ac-Leu-Leu-[Nle]-aldehyde), the inhibition result in experiment [1] was “inactive”.

What is called IC50 is the concentration needed to halve the response being measured. High values mean weaker potency, low ones greater potency. With `CCC[C@H](NC(=O)/C(C#N)=C/c1cccc(Br)n1)c1ccccc1`, the IC50 in [7], in experiment [8] and in experiment [9] was 3 µM each time.

`COc1ccc(C(=O)ONC(=O)CNC(=O)[C@H](Cc2ccccc2)NC(=O)OCc2ccccc2)cc1`: in experiment [1], the inhibition entry is “inactive”.

Turning to `Cc1c(C)c(-c2ccc(OCc3cn(CCCCCCNC(=O)CCCC[C@@H]4SC[C@@H]5NC(=O)N[C@@H]54)nn3)cc2)c(O)c(O)c1-c1ccc(O)cc1`, the outcome in experiment [10] and in [12] was Active. Moreover, the inhibition result in experiment [11] and in experiment [13] was “Active” each time. The inhibition entry in experiment [14] was “inactive”.

Turning to `O=C(CCCC[C@@H]1SC[C@@H]2NC(=O)N[C@@H]21)NCCCCCCn1cc(COc2ccccc2)nn1`, the result in experiment [12] was inactive.
